From patent US20050130913A1, “Synergistic insecticidal mixtures” (priority 2002, published 2005) come the findings set out here.

Holding throughout (assay type): in vivo
The subject of data set [1] is army worm caterpillars (Spodoptera frugiperda). The note with it: found effect, dipped cabbage leaves. The procedure:
(§1) Spodoptera frugiperda Test
• Solvent: 7 parts by weight of dimethylformamide • Emulsifier: 2 parts by weight of alkylaryl polyglycol ether.
(§2) Cabbage leaves (Brassica oleracea) are treated by being dipped into the active compound preparation of the desired concentration and are populated with army worm caterpillars (Spodoptera frugiperda) while the leaves are still moist.
(§3) After the desired period, the destruction in % is determined. 100% means that all of the caterpillars have been destroyed; 0% means that no caterpillars have been destroyed. The destruction values determined are calculated using Carpenter's formula.

In data set [2] the test system is diamond-back moth caterpillars (Plutella xylostella, sensitive strain). The experiment in a line: Plutella test, sensitive strain (Example C). The settings on record: found effect, dipped cabbage leaves. The procedure:
Plutella Test, Sensitive Strain
(§4) • Solvent: 7 parts by weight of dimethylformamide • Emulsifier: 2 parts by weight of alkylaryl polyglycol ether
Cabbage leaves (Brassica oleracea) are treated by being dipped into the active compound preparation of the desired concentration and are populated with diamond-back moth caterpillars (Plutella xylostella, sensitive strain) while the leaves are still moist.
as §3

The subject of data set [3] is Heliothis armigera caterpillars. The settings on record: found effect, dipped soya bean shoots (Glycine max). Here is the method: as §4
Soya bean shoots (Glycine max) are treated by being dipped into the active compound preparation of the desired concentration and are populated with Heliothis armigera caterpillars while the leaves are still moist.
After the desired period, the destruction in % is determined. 100% means that all of the caterpillars have been destroyed; 0% means that no caterpillars have been destroyed. The destruction values determined are calculated using Carpenter's formula (see previous page).

Data set [4] deals with diamond-back moth caterpillars (Plutella xylostella, resistant strain). The experiment in a line: Plutella test, resistant strain (Example D). The note with it: found effect, dipped cabbage leaves. Here is the method:
Plutella Test, Resistant Strain
as §4
Cabbage leaves (Brassica oleracea) are treated by being dipped into the active compound preparation of the desired concentration and are populated with diamond-back moth caterpillars (Plutella xylostella, resistant strain) while the leaves are still moist.
as §3

The test system of data set [5] is mustard beetle larvae (Phaedon cochleariae). The settings on record: found effect, dipped cabbage leaves (Brassica oleracea). Here is the method: as §4
(§5) After the desired period, the destruction in % is determined. 100% means that all of the beetle larvae have been destroyed; 0% means that no beetle larvae have been destroyed. The destruction values determined are calculated using Carpenter's formula.

Data set [6] concerns army worm caterpillars (Spodoptera frugiperda). The data set can be described thus: Spodoptera frugiperda test (Example G). The note with it: found effect, dipped cabbage leaves. The procedure:
as §1, §4, §2, §3

The subject of data set [7] is mustard beetle larvae (Phaedon cochleariae). The data set can be described thus: Phaedon larvae test (Example F). The note with it: found effect, dipped cabbage leaves. The procedure:
as §4, §5

On to emamectin benzoate, for which the “LC50 after 6 days” value was determined as 0.0029 ppm in data set [1], 0.007 ppm in data set [3] and 0.026 ppm in data set [5]. Besides, the results for the “LC95 after 6 days” value in data set [2] and in data set [4] were 0.0009 ppm and 0.0033 ppm, respectively.

For the molecule `CC[C@H](C)[C@H]1O[C@]2(C=C[C@@H]1C)C[C@@H]1C[C@@H](C/C=C(\C)[C@@H](O[C@H]3C[C@H](OC)[C@@H](O[C@H]4C[C@H](OC)[C@@H](O)[C@H](C)O4)[C@H](C)O3)[C@@H](C)/C=C/C=C3\CO[C@@H]4[C@H](O)C(C)=C[C@@H](C(=O)O1)[C@]34O)O2` [Avermectin, abamectin], the “LC95 after 6 days” value in data set [6] amounted to 30.104 ppm; in data set [7], 0.345 ppm.
